Data reported in the NIST ThermoML archive (doi:10.1021/je060271a).
“And” between values parts separate entries of the source, which are not always exact repeats. Equal entries are not always repeated.

Settings: Liquid, Vibrating tube method

CCCC(=O)OCC(COC(=O)CCC)(COC(=O)CCC)COC(=O)CCC [pentaerythritol tetrabutyrate]
Settings | mass density
283.16 K, 23020 kPa | 1072.1 kg/m3
283.16 K, 23036 kPa | 1072.1 kg/m3
283.16 K, 23052 kPa | 1072.2 kg/m3
283.16 K, 23069 kPa | 1072.1 kg/m3
283.16 K, 23089 kPa | 1072.1 kg/m3
283.16 K, 23106 kPa | 1072.1 kg/m3
283.16 K, 23123 kPa | 1072.2 kg/m3
283.16 K, 23269 kPa | 1072.2 kg/m3
283.16 K, 23431 kPa | 1072.4 kg/m3
283.16 K, 23452 kPa | 1072.4 kg/m3
283.16 K, 23468 kPa | 1072.3 kg/m3
283.16 K, 23490 kPa | 1072.3 kg/m3
283.16 K, 23507 kPa | 1072.4 kg/m3
283.16 K, 23524 kPa | 1072.5 kg/m3
283.16 K, 23541 kPa | 1072.4 kg/m3
283.16 K, 23562 kPa | 1072.4 kg/m3
283.16 K, 23580 kPa | 1072.5 kg/m3
283.16 K, 23601 kPa | 1072.4 kg/m3
283.16 K, 23619 kPa | 1072.4 kg/m3
283.16 K, 23636 kPa | 1072.4 kg/m3
283.16 K, 23657 kPa | 1072.3 kg/m3
283.16 K, 23675 kPa | 1072.4 kg/m3
283.16 K, 23692 kPa | 1072.5 kg/m3
283.16 K, 23710 kPa | 1072.6 kg/m3
283.16 K, 23767 kPa | 1072.5 kg/m3
283.16 K, 23788 kPa | 1072.6 kg/m3
283.16 K, 23806 kPa | 1072.5 kg/m3
283.16 K, 23824 kPa | 1072.5 kg/m3
283.16 K, 23846 kPa | 1072.6 kg/m3
283.16 K, 23864 kPa | 1072.6 kg/m3
283.16 K, 24034 kPa | 1072.7 kg/m3
283.16 K, 24056 kPa | 1072.8 kg/m3
283.16 K, 24075 kPa | 1072.7 kg/m3
283.16 K, 24094 kPa | 1072.7 kg/m3
283.16 K, 24114 kPa | 1072.6 kg/m3
283.16 K, 24135 kPa | 1072.6 kg/m3
283.16 K, 24154 kPa | 1072.8 kg/m3
283.16 K, 24172 kPa | 1072.7 kg/m3
283.16 K, 24191 kPa | 1072.6 kg/m3
283.16 K, 24213 kPa | 1072.7 kg/m3
283.16 K, 24231 kPa | 1072.8 kg/m3
283.16 K, 24254 kPa | 1072.9 kg/m3
283.16 K, 24332 kPa | 1072.7 kg/m3
283.16 K, 24351 kPa | 1072.9 kg/m3
283.16 K, 24370 kPa | 1072.7 kg/m3
283.16 K, 24392 kPa | 1072.7 kg/m3
283.16 K, 24412 kPa | 1072.8 kg/m3
283.16 K, 24431 kPa | 1072.9 kg/m3
283.16 K, 24453 kPa | 1072.9 kg/m3
283.16 K, 24472 kPa | 1072.9 kg/m3
283.16 K, 24494 kPa | 1072.9 kg/m3
283.16 K, 24514 kPa | 1072.9 kg/m3
283.16 K, 24532 kPa | 1072.9 kg/m3
283.16 K, 24551 kPa | 1072.9 kg/m3
283.16 K, 24574 kPa | 1072.9 kg/m3
283.16 K, 24593 kPa | 1072.9 kg/m3
283.16 K, 24613 kPa | 1073 kg/m3
283.16 K, 24636 kPa | 1072.9 kg/m3
283.16 K, 24656 kPa | 1073 kg/m3
283.16 K, 24989 kPa | 1073.1 kg/m3
283.16 K, 25506 kPa | 1073.5 kg/m3
283.16 K, 25531 kPa | 1073.5 kg/m3
283.16 K, 25552 kPa | 1073.5 kg/m3
283.16 K, 25573 kPa | 1073.4 kg/m3
283.16 K, 26529 kPa | 1073.9 kg/m3
283.16 K, 26552 kPa | 1074 kg/m3
283.16 K, 26575 kPa | 1074 kg/m3
283.16 K, 26603 kPa | 1073.9 kg/m3
283.16 K, 26626 kPa | 1074 kg/m3
283.16 K, 26649 kPa | 1074 kg/m3
283.16 K, 26676 kPa | 1073.9 kg/m3
283.16 K, 26698 kPa | 1074 kg/m3
283.16 K, 29351 kPa | 1075.5 kg/m3
283.16 K, 29380 kPa | 1075.4 kg/m3
283.16 K, 29409 kPa | 1075.5 kg/m3
283.16 K, 33957 kPa | 1077.9 kg/m3
283.16 K, 34005 kPa | 1077.8 kg/m3
283.16 K, 34045 kPa | 1078 kg/m3
283.16 K, 34086 kPa | 1077.9 kg/m3
283.16 K, 34136 kPa | 1078 kg/m3
283.16 K, 34523 kPa | 1078 kg/m3
283.16 K, 34524 kPa | 1078.1 kg/m3
283.16 K, 34525 kPa | 1078.1 kg/m3 and 1078 kg/m3
283.16 K, 34526 kPa | 1078.2 kg/m3 and 1078.1 kg/m3
283.16 K, 34527 kPa | 1078.1 kg/m3 and 1078.2 kg/m3
283.16 K, 34528 kPa | 1078.2 kg/m3 and 1078.1 kg/m3
283.16 K, 34529 kPa | 1078.1 kg/m3
283.17 K, 5010.1 kPa | 1062 kg/m3
283.17 K, 5010.7 kPa | 1062.1 kg/m3
283.17 K, 5010.8 kPa | 1062 kg/m3
283.17 K, 5011 kPa | 1062 kg/m3
283.17 K, 5011.2 kPa | 1062 kg/m3 and 1062.1 kg/m3
283.17 K, 5011.5 kPa | 1062.1 kg/m3
283.17 K, 5026.1 kPa | 1062 kg/m3
283.17 K, 5026.2 kPa | 1061.9 kg/m3
283.17 K, 5026.4 kPa | 1062 kg/m3
283.17 K, 5482.5 kPa | 1062.3 kg/m3
283.17 K, 5493.4 kPa | 1062.3 kg/m3
283.17 K, 5500 kPa | 1062.3 kg/m3
283.17 K, 5505.1 kPa | 1062.3 kg/m3
283.17 K, 6286.6 kPa | 1062.7 kg/m3
283.17 K, 6293.2 kPa | 1062.8 kg/m3
283.17 K, 34163 kPa | 1077.8 kg/m3
283.17 K, 34186 kPa | 1077.9 kg/m3
283.17 K, 34206 kPa | 1078 kg/m3
283.17 K, 34224 kPa | 1077.9 kg/m3
283.17 K, 34234 kPa | 1077.9 kg/m3
283.17 K, 34519 kPa | 1078.2 kg/m3 and 1078.1 kg/m3
283.17 K, 34520 kPa | 1078.1 kg/m3
283.17 K, 34521 kPa | 1078.2 kg/m3 and 1078.1 kg/m3
283.17 K, 34522 kPa | 1078 kg/m3 and 1078.1 kg/m3
283.17 K, 34523 kPa | 1078.2 kg/m3
283.17 K, 34524 kPa | 1078.2 kg/m3
303.15 K, 13139 kPa | 1050.5 kg/m3
303.15 K, 20352 kPa | 1054.9 kg/m3
303.15 K, 20397 kPa | 1055 kg/m3
303.15 K, 20435 kPa | 1055.1 kg/m3
303.15 K, 21135 kPa | 1055.3 kg/m3
303.15 K, 21185 kPa | 1055.4 kg/m3
303.15 K, 21226 kPa | 1055.4 kg/m3
303.15 K, 21276 kPa | 1055.5 kg/m3
303.15 K, 21416 kPa | 1055.6 kg/m3
303.15 K, 32925 kPa | 1062.1 kg/m3
303.15 K, 32967 kPa | 1062.1 kg/m3
303.15 K, 33008 kPa | 1062.1 kg/m3
303.15 K, 33049 kPa | 1062.2 kg/m3
303.16 K, 104.1 kPa | 1042.1 kg/m3
303.16 K, 104.5 kPa | 1042.2 kg/m3
303.16 K, 105.2 kPa | 1042.1 kg/m3
303.16 K, 105.7 kPa | 1042.2 kg/m3
303.16 K, 106 kPa | 1042.3 kg/m3
303.16 K, 106.2 kPa | 1042.2 kg/m3
303.16 K, 106.4 kPa | 1042.2 kg/m3
303.16 K, 106.7 kPa | 1042.3 kg/m3
303.16 K, 108.3 kPa | 1042.3 kg/m3
303.16 K, 112.7 kPa | 1042.2 kg/m3
303.16 K, 117.7 kPa | 1042.3 kg/m3
303.16 K, 124.5 kPa | 1042.2 kg/m3
303.16 K, 132.1 kPa | 1042.1 kg/m3
303.16 K, 137.5 kPa | 1042.1 kg/m3
303.16 K, 143.9 kPa | 1042.3 kg/m3
303.16 K, 150.9 kPa | 1042.3 kg/m3
303.16 K, 159.9 kPa | 1042.2 kg/m3
303.16 K, 169 kPa | 1042.2 kg/m3
303.16 K, 180.8 kPa | 1042.3 kg/m3
303.16 K, 192.3 kPa | 1042.2 kg/m3
303.16 K, 204.8 kPa | 1042.2 kg/m3
